Patent US11753407B2, “Compounds for treating spinal muscular atrophy” (PTC Therapeutics, Inc., priority 2012, dated 2023)

Columns and labels:
[1] = test system: SMN2 minigene mRNA (SMN2-A minigene) in HEK293H cells; test: SMN2 minigene mRNA splicing RT-qPCR assay in cultured cells; type: cell-based, human; conditions: Homo sapiens, HEK293-H; concentration increasing full length SMN2 mRNA 1.5-fold relative to vehicle-treated cells; HEK293H cells with SMN2-A minigene, 24 hours, 7-point concentration data; read-out: EC1.5x for production of full length SMN2 mRNA
How it was run: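 Cells are seeded, left to attach 4-6 h, then dosed with test compound across seven concentrations and incubated 24 h. Lysates undergo RT-qPCR with primers/probe specific to the exon 7-containing minigene transcript, co-amplified with GAPDH. Fold change over vehicle is calculated, and EC1.5× marks the 1.5-fold point.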

[2] = test system: Smn protein in SMA patient fibroblast cells (GM03813); test: Smn protein assay in cultured cells (SMN HTRF); type: cell-based, human; conditions: SMA patient fibroblast cells, 48 hours; for EC1.5x for Smn protein expression: 7-point concentration curve, SMN HTRF, concentration producing 1.5 times Smn protein vs DMSO vehicle control; for maximum fold (Fold) increase of Smn protein: 7-point concentration data, fold relative to vehicle control
How it was run: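 Patient-derived SMA fibroblasts are plated, given compound for 48 h, then lysed in RIPA buffer with protease inhibitors. Lysate Smn is detected by an anti-SMN d2/kryptate HTRF pair incubated overnight. The normalized ΔF is divided by the vehicle ΔF to give fold change, from which EC1.5× and maximum fold are taken.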

Compound | EC (1.5-fold increase) [1] [µM] | EC1.5x for Smn protein expression [2] | maximum fold (Fold) increase of Smn protein [2] | melting point [°C]
CCc1cc(-c2cc(=O)n3cc(N4CCN(CCO)[C@H](C)C4)ccc3n2)cn2cc(C)nc12 [Compound 649, 2-(8-ethyl-2-methylimidazo[1,2-a]pyridin-6-yl)-7-[(3R)-4-(2-hydroxyethyl)-3-methylpiperazin-1-yl]-4H-pyrido[1,2-a]pyrimidin-4-one] | < 0.1 | **** (an EC1.5x≤0.3 μM is indicated by four stars (****)) | ***** (a fold increase >1.65 is indicated by five stars (*****)) | 217 to 220
CCc1cc(-c2cc(=O)n3cc(N4CCN(C5CCC5)[C@H](C)C4)ccc3n2)cn2cc(C)nc12 [Compound 650, 7-[(3R)-4-cyclobutyl-3-methylpiperazin-1-yl]-2-(8-ethyl-2-methylimidazo[1,2-a]pyridin-6-yl)-4H-pyrido[1,2-a]pyrimidin-4-one] | < 0.1 | **** (an EC1.5x≤0.3 μM is indicated by four stars (****)) | ***** (a fold increase >1.65 is indicated by five stars (*****)) | 209 to 212
CCc1cc(-c2cc(=O)n3cc(N4CCN(CCO)[C@@H](C)C4)ccc3n2)cn2cc(C)nc12 [Compound 651, 2-(8-ethyl-2-methylimidazo[1,2-a]pyridin-6-yl)-7-[(3S)-4-(2-hydroxyethyl)-3-methylpiperazin-1-yl]-4H-pyrido[1,2-a]pyrimidin-4-one] | < 0.1 | **** (an EC1.5x≤0.3 μM is indicated by four stars (****)) | ***** (a fold increase >1.65 is indicated by five stars (*****)) | 220 to 223
CCc1nc(C)cn2nc(-c3cc(=O)n4cc(C5CCN(C)CC5)ncc4n3)cc12 [Compound 654, 2-(4-ethyl-6-methylpyrazolo[1,5-a]pyrazin-2-yl)-7-(1-methylpiperidin-4-yl)-4H-pyrazino[1,2-a]pyrimidin-4-one] | < 0.1 | **** (an EC1.5x≤0.3 μM is indicated by four stars (****)) | ***** (a fold increase >1.65 is indicated by five stars (*****)) | 261 to 263
CCc1nc(C)cn2nc(-c3cc(=O)n4cc(C5CCN(CC)CC5)ncc4n3)cc12 [Compound 655, 2-(4-ethyl-6-methylpyrazolo[1,5-a]pyrazin-2-yl)-7-(1-ethylpiperidin-4-yl)-4H-pyrazino[1,2-a]pyrimidin-4-one] | < 0.1 | **** (an EC1.5x≤0.3 μM is indicated by four stars (****)) | **** (a fold increase between >1.5 and ≤1.65 is indicated by four stars (****)) | 273 to 275
CCc1nc(C)cn2nc(-c3cc(=O)n4cc(C5CCNCC5)ccc4n3)cc12 [Compound 656, 2-(4-ethyl-6-methylpyrazolo[1,5-a]pyrazin-2-yl)-7-(piperidin-4-yl)-4H-pyrido[1,2-a]pyrimidin-4-one] | < 0.1 | **** (an EC1.5x≤0.3 μM is indicated by four stars (****)) | **** (a fold increase between >1.5 and ≤1.65 is indicated by four stars (****)) | 236 to 238
CCc1nc(C)cn2nc(-c3cc(=O)n4cc(C5CCN(C)CC5)ccc4n3)cc12 [Compound 657, 2-(4-ethyl-6-methylpyrazolo[1,5-a]pyrazin-2-yl)-7-(1-methylpiperidin-4-yl)-4H-pyrido[1,2-a]pyrimidin-4-one] | < 0.1 | **** (an EC1.5x≤0.3 μM is indicated by four stars (****)) | ***** (a fold increase >1.65 is indicated by five stars (*****)) | 190 to 192
CCc1nc(C)cn2nc(-c3cc(=O)n4cc(C5CCN(CC)CC5)ccc4n3)cc12 [Compound 658, 2-(4-ethyl-6-methylpyrazolo[1,5-a]pyrazin-2-yl)-7-(1-ethylpiperidin-4-yl)-4H-pyrido[1,2-a]pyrimidin-4-one] | < 0.1 | **** (an EC1.5x≤0.3 μM is indicated by four stars (****)) | ***** (a fold increase >1.65 is indicated by five stars (*****)) | 194 to 196
CCc1nc(C)cn2nc(-c3cc(=O)n4cc(C5CCN(CCO)CC5)ccc4n3)cc12 [Compound 659, 2-(4-ethyl-6-methylpyrazolo[1,5-a]pyrazin-2-yl)-7-[1-(2-hydroxyethyl)piperidin-4-yl]-4H-pyrido[1,2-a]pyrimidin-4-one] | < 0.1 | **** (an EC1.5x≤0.3 μM is indicated by four stars (****)) | ***** (a fold increase >1.65 is indicated by five stars (*****)) | 207 to 209
CCCN1CCC(c2ccc3nc(-c4cc5c(CC)nc(C)cn5n4)cc(=O)n3c2)CC1 [Compound 660, 2-(4-ethyl-6-methylpyrazolo[1,5-a]pyrazin-2-yl)-7-(1-propylpiperidin-4-yl)-4H-pyrido[1,2-a]pyrimidin-4-one] | < 0.1 | **** (an EC1.5x≤0.3 μM is indicated by four stars (****)) | **** (a fold increase between >1.5 and ≤1.65 is indicated by four stars (****)) | 203 to 204
CCc1nc(C)cn2nc(-c3cc(=O)n4cc(N5CCN[C@H](C)C5)ccc4n3)cc12 [Compound 661, 2-(4-ethyl-6-methylpyrazolo[1,5-a]pyrazin-2-yl)-7-[(3R)-3-methylpiperazin-1-yl]-4H-pyrido[1,2-a]pyrimidin-4-one] | < 0.1 | **** (an EC1.5x≤0.3 μM is indicated by four stars (****)) | ***** (a fold increase >1.65 is indicated by five stars (*****)) | 185 to 188
Cc1cn2nc(-c3cc(=O)n4cc(C5CCN(CCCF)CC5)ccc4n3)cc2c(C)n1 [Compound 663, 2-(4,6-dimethylpyrazolo[1,5-a]pyrazin-2-yl)-7-[1-(3-fluoropropyl)piperidin-4-yl]-4H-pyrido[1,2-a]pyrimidin-4-one] | < 0.1 | **** (an EC1.5x≤0.3 μM is indicated by four stars (****)) | ***** (a fold increase >1.65 is indicated by five stars (*****)) | 186 to 188
CCc1nc(C)cn2nc(-c3cc(=O)n4cc(N5CCN(CCF)CC5)ccc4n3)cc12 [Compound 664, 2-(4-ethyl-6-methylpyrazolo[1,5-a]pyrazin-2-yl)-7-[4-(2-fluoroethyl)piperazin-1-yl]-4H-pyrido[1,2-a]pyrimidin-4-one] | 0.3 to 1 | *** (an EC1.5× between >0.3 μM and ≤1 μM is indicated by three stars (***)) | ***** (a fold increase >1.65 is indicated by five stars (*****)) | 245 to 247
CCc1nc(C)cn2nc(-c3cc(=O)n4cc(N5CCN(CCCF)CC5)ccc4n3)cc12 [Compound 665, 2-(4-ethyl-6-methylpyrazolo[1,5-a]pyrazin-2-yl)-7-[4-(3-fluoropropyl)piperazin-1-yl]-4H-pyrido[1,2-a]pyrimidin-4-one] | 0.1 to 0.3 | **** (an EC1.5x≤0.3 μM is indicated by four stars (****)) | ***** (a fold increase >1.65 is indicated by five stars (*****)) | 240 to 242
CCc1nc(C)cn2nc(-c3cc(=O)n4cc(N5CCN(CCF)[C@H](C)C5)ccc4n3)cc12 [Compound 666, 2-(4-ethyl-6-methylpyrazolo[1,5-a]pyrazin-2-yl)-7-[(3R)-4-(2-fluoroethyl)-3-methylpiperazin-1-yl]-4H-pyrido[1,2-a]pyrimidin-4-one] | 0.1 to 0.3 | *** (an EC1.5× between >0.3 μM and ≤1 μM is indicated by three stars (***)) | ***** (a fold increase >1.65 is indicated by five stars (*****)) | 255 to 257
CCc1nc(C)cn2nc(-c3cc(=O)n4cc(N5CCN(CCCF)[C@H](C)C5)ccc4n3)cc12 [Compound 667, 2-(4-ethyl-6-methylpyrazolo[1,5-a]pyrazin-2-yl)-7-[(3R)-4-(3-fluoropropyl)-3-methylpiperazin-1-yl]-4H-pyrido[1,2-a]pyrimidin-4-one] | < 0.1 | **** (an EC1.5x≤0.3 μM is indicated by four stars (****)) | ***** (a fold increase >1.65 is indicated by five stars (*****)) | 244 to 246
CCc1nc(C)cn2nc(-c3cc(=O)n4cc(C5CCN(CCF)CC5)ccc4n3)cc12 [Compound 668, 2-(4-ethyl-6-methylpyrazolo[1,5-a]pyrazin-2-yl)-7-[1-(2-fluoroethyl)piperidin-4-yl]-4H-pyrido[1,2-a]pyrimidin-4-one] | < 0.1 | **** (an EC1.5x≤0.3 μM is indicated by four stars (****)) | ***** (a fold increase >1.65 is indicated by five stars (*****)) | 206 to 208
